Consider 15 compounds from publication PMC10049495, “Antitumor Activity of PEGylated and TEGylated Phenothiazine Derivatives: Structure–Activity Relationship” (International Journal of Molecular Sciences, 2023).

The test system of assay [1] is malignant melanoma (MeWo) cells. Nature of the assay: Cytotoxicity MTS assay on MeWo. The class given is cell-based, human. To be noted: for Selectivity index (SI): IC50 NHDF / IC50 MeWo; for IC50: MeWo, 48 h, MTS, tested 0.01-0.3 mM, read-out: Half maximal inhibition concentration (IC50). On the procedure:
(§1) Cell culture: NHDF, HeLa, HOS, HepG2, MCF7, MeWo and CT-26 cells were cultivated in complete Eagle’s Minimal Essential Medium alpha (aMEM) containing a 1% Penicillin–Streptomycin–Amphotericin B mixture and a 10% fetal bovine serum under 5% CO2 humidified atmosphere at 37 °C. LN-229 cells were cultivated in DMEM with a 1% Penicillin–Streptomycin–Amphotericin B mixture and a 5% fetal bovine serum. U-118 cells were cultivated in DMEM with a 1% Penicillin–Streptomycin–Amphotericin B mixture and a 10% fetal bovine serum. StemPro™ Accutase™ Cell Dissociation Reagent was used for passaging MeWo and U-118 cells, and TrypLE Express was used for all other cell lines.
(§2) The working solutions were prepared by diluting the stock solutions with complete medium so that the final concentration of DMSO in the cell culture was 1%. The working solutions were used for incubation. Control cells were treated only with complete cell culture medium containing 1% DMSO.
(§3) Cytotoxicity MTS assay: In order to perform the MTS assay, cells were placed in culture-treated 96-well plates at densities of 5 × 10^3 cells/well (NHDF and CT-26), 7 × 10^3 cells/well (MCF7) and 10 × 10^3 cells/well (HOS, HeLa, HepG2, MeWo, LN-229, U-118) in 100 μL of a MEM medium/well and allowed to adhere for 24 h. After 24 h, the culture medium was replaced with the tested compound solutions at various concentrations, and the plates were incubated for another 48 h. Before the final reading, 20 μL CellTiter 96® Aqueous One Solution/well was added, and the plates were incubated for 1–4 h. Finally, the absorbance was recorded with a microplate reader at λ = 490 nm. The relative cell viability was expressed as a percentage of the viability of control, and the half maximal inhibitory concentration (IC50) was determined from the graphical representation of the cell viability vs. concentration. Graphical data were expressed as means ± standard error of the mean (S.E.M.). Statistical analysis was made with two-way ANOVA using Tukey’s multiple comparisons test. The difference was considered significant when p < 0.05. Data analysis was performed with GraphPad Prism software version 7.00 for Windows.
On the technique in general: Tetrazolium assays rely on reduction of a dye to a coloured formazan, in cell work by metabolically active cells.

Assay [2] relates to glioblastoma (LN229) cells. Nature of the assay: Cytotoxicity MTS assay on LN229. To be noted: tested 0.01-0.3 mM, read-out: Half maximal inhibition concentration (IC50). The class given is cell-based, human. On the procedure: as §1, §2, §3
Assay [3] deals with glioblastoma cell line (U-118). Nature of the assay: Cytotoxicity MTS assay on U-118. The class given is cell-based, human. As to conditions: for IC50: U-118, 48 h, MTS, tested 0.01-0.3 mM, read-out: Half maximal inhibition concentration (IC50). As to the method:
as §1, §2, §3

Assay [4] concerns mouse colon carcinoma cell line (CT26). Description: Cytotoxicity MTS assay on CT-26. The format is cell-based. As to conditions: for IC50: CT-26, 48 h, MTS, tested 0.01-0.3 mM, read-out: Half maximal inhibition concentration (IC50); for Selectivity index (SI): IC50 NHDF / IC50 CT-26. As to the method: as §1, §2, §3
A short description of assay [5]: DPPH radical scavenging activity. To be noted: for DPPH radical inhibition: 1 mM compound, ethanol, 1 h in the dark. The text has this:
In this light, the antioxidant activity of the studied phenothiazine derivatives was investigated using DPPH assay, measuring the dependence of the free radical inhibition on the concentration as highlighted by a decreasing of the absorbance of DPPH when the concentration of the compound is increasing. The results, expressed in percentage of inhibition, are represented in Figure 4.
Ex Vivo Radical Scavenging Activity: In order to evaluate antioxidant activity of the studied compounds, a bleaching method of the 1,1-diphenyl-2-picryl hydrazyl (DPPH) radical was used. Briefly, a stock solution of 2 mM of each compound in ethanol was prepared and then diluted to obtain 10 different concentrations from 1 mM to 0.0019 mM using a 96-well plate. The diluted solutions with different concentrations were mixed with an equal volume of ethanolic DPPH solution (0.05 mg/mL), and the mixtures were incubated in the dark at room temperature […] for 1 h. After incubation, the absorbance was read at 517 nm. Inhibition percentage was calculated using Equation (2), where Ac is the absorbance of the control sample (DPPH) and As is the absorbance of the mixtures. All measurements were made in triplicate. I % = (Ac-As)/Ac × 100 (2)
On the technique in general: Loss of DPPH colour is used to gauge radical scavenging.

The subject of assay [6] is breast cancer (MCF7) cells. Nature of the assay: Cytotoxicity MTS assay on MCF-7. The format is cell-based, human. To be noted: for Selectivity index (SI): IC50 NHDF / IC50 MCF7; for IC50: MCF-7, 48 h, MTS, tested 0.01-0.3 mM, read-out: Half maximal inhibition concentration (IC50). On the procedure: as §1, §2, §3
Another assay has as its system osteosarcoma (HOS) cells. Nature of the assay: Cytotoxicity MTS assay on HOS. The class given is cell-based, human. To be noted: 48 h, tested 0.01-0.3 mM, read-out: Half maximal inhibition concentration (IC50). As to the method:
as §1, §2, §3

In assay [7] the test system is normal human dermal fibroblasts (NHDF). Nature of the assay: Cytotoxicity MTS assay on normal fibroblasts. The class given is cell-based. As to conditions: 48 h, tested 0.01-0.3 mM, read-out: Half maximal inhibition concentration (IC50). On the procedure:
as §1, §2, §3

The test system of assay [8] is liver cancer (HepG2) cells. Nature of the assay: Cytotoxicity MTS assay on HepG2. The format is cell-based, human. As to conditions: for IC50: HepG2, 48 h, MTS, tested 0.01-0.3 mM, read-out: Half maximal inhibition concentration (IC50). On the procedure: as §1, §2, §3
The test system of assay [9] is cervical carcinoma (HeLa) cells. Description: Cytotoxicity MTS assay on HeLa. The format is cell-based, human. As to conditions: for IC50: HeLa, 48 h, MTS, tested 0.01-0.3 mM, read-out: Half maximal inhibition concentration (IC50); for Selectivity index (SI): IC50 NHDF / IC50 HeLa. On the procedure: as §1, §2, §3
The next assay concerns MCF-7. To be noted: cited from earlier work.
Another assay concerns HepG2. As to conditions: cited from earlier work.
In a further assay the test system is HeLa. As to conditions: cited from earlier work.

Values joined by “and” are separate entries in the source; they are usually repeats but may differ in a detail not shown here. Identical values can stand only once. Like-named read-outs stand apart in the source and are kept apart here.

Take “4-((((10-(poly(ethylene glycol))-10H-phenothiazin-3-yl)methylene)amino)ethyl)benzenesulfonamide [PPEA]”: the “Selectivity index (SI)” value in assay [1] amounted to 1.66; in assay [4], 3.44; in assay [6] it was 1.11; in [8] (IC50 NHDF / IC50 HepG2) it was 2.5; in [9], 1.25. Besides, the IC50 is 68 µM in [1]; 109 µM in assay [2] (LN229, 48 h); 100 µM in assay [3]; 29 µM in assay [4]; 90 µM in assay [6]; greater than 300 µM in the assay on osteosarcoma (HOS) cells. Besides, the figures for the IC50 in [7], in assay [8] and in [9] were 108 µM, 40 µM and 86 µM, respectively. In assay [5], this compound displayed a DPPH radical inhibition of 47%.

Consider `CC(=O)c1cc(C(=O)c2ccc3c(c2)Sc2ccccc2N3)c2cc(C)ccn12` [1-[(10H-Phenothiazin-3-yl)carbonyl]-3-acetyl-7-methylindolizine], for which the IC50 in the assay with MCF-7 is greater than 10 µM.

Regarding `CCN1c2ccc(-c3ccc(OC)cc3)cc2Sc2cc(-c3nnc4ccccn34)ccc21` [3-([1,2,4]Triazolo[4,3-a]pyridin-3-yl)-10-ethyl-7-(4-methoxyphenyl)-10H-phenothiazine], in the assay with MCF-7, the IC50 is 57.2 µM.

For the compound `Clc1ccc(-n2cc(CN3c4ccccc4Sc4ccccc43)nn2)cc1` [10-((1-(4-Chlorophenyl)-1H-1,2,3-triazol-4-yl)methyl)-10Hphenothiazine], the IC50 in the assay on HepG2 was 1.3 µM.

With `COc1cc(Cn2cc(CN3c4ccccc4Sc4ccccc43)nn2)cc(OC)c1OC` [10-{[1-(3,4,5-Trimethoxybenzyl)-1H-1,2,3-triazol-4-yl]methyl}-10H-phenothiazine], the IC50 with MCF-7 was 0.8 µM.

For the compound “10-(poly(ethylene glycol))-10H-phenothiazine-3-carbaldehyde [PPF]”, the IC50 in assay [1] is 235 µM; in [2] (LN229, 48 h), greater than 300 µM; in assay [3], greater than 300 µM; in assay [4], 140 µM and 139 µM; in [6] it was 270 µM; in the assay on osteosarcoma (HOS) cells it was greater than 300 µM. In addition, the IC50 in [7] is greater than 300 µM; in [8] it was 100 µM and 106 µM; in assay [9], greater than 300 µM. The “radical scavenging capacity (in words)” value in assay [5] (DPPH, 0.0019-1 mM) is on record as “very low radical scavenging capacity”.

With `c1ccc2c(c1)Nc1ccccc1S2` [PTZ, phenothiazine], the IC50 was greater than 300 µM in assay [1] (Homo sapiens); greater than 300 µM in assay [2] (Homo sapiens, LN-229, LN229, 48 h); greater than 300 µM in [3] (Homo sapiens); 186 µM in assay [4] (Mus musculus, CT26); 188 µM in assay [6] (Homo sapiens, MCF7); greater than 300 µM in the assay on osteosarcoma (HOS) cells (Homo sapiens). Moreover, the values for the IC50 in [7] (Homo sapiens), in assay [8] (Homo sapiens) and in [9] (Homo sapiens) were 175 µM, 73 µM and 240 µM, respectively. Further, in assay [5], the DPPH radical inhibition is 67%. Moreover, the “Selectivity index (SI)” value in assay [8] is 2.42.

Consider `CC(=O)c1cc(C(=O)c2ccc3c(c2)Sc2ccccc2N3)c2c(C)cc(C)cn12` [1-[(10H-Phenothiazin-3-yl)carbonyl]-3-acetyl-6,8-dimethylindolizine], for which, in the assay on MCF-7, the IC50 is greater than 10 µM.

Regarding `COc1ccn2c(C(C)=O)cc(C(=O)c3ccc4c(c3)Sc3ccccc3N4)c2c1` [1-[(10H-Phenothiazin-3-yl)carbonyl]-3-acetyl-7-methoxyindolizine], the IC50 in the assay with MCF-7 is greater than 10 µM.

`FC(F)(F)c1ccc2c(c1)N(Cc1cn(-c3ccc(Cl)cc3)nn1)c1ccccc1S2` [10-{[1-(4-Chlorophenyl)-1H-1,2,3-triazol-4-yl]methyl}-2-{trifluoromethyl}-10H-phenothiazine]: the IC50 in the assay with MCF-7 is 29.6 µM.

As for `COc1ccc(-n2cc(CN3c4ccccc4Sc4ccccc43)nn2)cc1` [10-((1-(4-Methoxyphenyl)-1H-1,2,3-triazol-4-yl)methyl)-10Hphenothiazine], the IC50 with HepG2 was 15 µM.

For `CN1CCN(CCCN2c3ccccc3Sc3ccc(C(F)(F)F)cc32)CC1` [Trifluoperazine], the IC50 with MCF-7 is 11.3 µM.

Consider `OC(CNCCc1ccccc1)CN1c2ccccc2Sc2ccccc21` (stereo not drawn) [1-Phenethylamino-3-(10H-phenothiazin-10-yl)-2-propanol], for which, in the assay with HeLa, the IC50 was 10 µM.

With “4-((((10-(poly(ethylene glycol))-10H-phenothiazin-3-yl)methylene)amino)methyl) benzenesulfonamide [PPMA]”, the “Selectivity index (SI)” value in assay [1] stood at 1.5; in assay [3] (IC50 NHDF / IC50 U118MG), 1.66; in [4] it was 3.75; in [6], 1.66; in assay [8] (IC50 NHDF / IC50 HepG2) it was 3; in assay [9], 1.36. The IC50 was 104 µM in [1]; 239 µM in [2] (LN229, 48 h); 92 µM in [3]; 40 µM in assay [4]; 90 µM in assay [6]; greater than 300 µM in the assay on osteosarcoma (HOS) cells. The IC50 worked out at 150 µM in [7], 54 µM in assay [8] and 116 µM in assay [9]. The compound also yielded a DPPH radical inhibition in assay [5] of 44%.

Regarding `CCN1c2ccc(-c3ccccc3)cc2Sc2cc(-c3nnc4ccccn34)ccc21` [3-([1,2,4]Triazolo[4,3-a]pyridin-3-yl)-10-ethyl-7-phenyl-10H-phenothiazine], the IC50 in the assay on MCF-7 is 10.2 µM.
